Measured values taken from PubChem BioAssay AID1845201 (Molecular Pharmacology Branch, DTP, NCI, 2023).

Test system: COR L88 complex tumor spheroid viability
Test: Anticancer human tumor COR L88 cell line growth inhibition;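 note: compound exposure lasted 7 days before viability readout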;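 for viability, T/C: percent of DMSO vehicle-treated spheroids = 100%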
Settings: for IC50: curve of first compound; for viability, T/C: stronger effect = lower value
Description: Multicellular complex tumor spheroid response to DNA repair inhibitors in combination with DNA-damaging drugs
This study explores the anticancer activities of DNA-damaging drugs and inhibitors of DNA damage repair, both as single agents and in combinations. Complex tumor spheroids comprised of malignant cells, endothelial cells and mesenchymal stem cells served as an in vitro model for human solid tumors. This model system incorporates physiologically relevant features and patient-derived or established malignant cell lines with clinically relevant genetic alterations from many tumor types. Twenty-six patient-derived or established malignant cell lines were evaluated representing sarcoma, melanoma, small cell lung cancer (SCLC), non-small cell lung cancer (NSCLC), as well as bladder, ovarian and pancreatic cancers. The concentration ranges selected for each drug and investigational agent were based upon clinically achievable concentrations if the clinical Cmax of the agent was known.
Compounds. The drugs and compounds olaparib (NSC753686), talazoparib (NSC767125), berzosertib (NSC777718), elimusertib (NSC800525), nedisertib (NSC802822), VX-984 (NSC792969), AZD-1390 (NSC803789), temozolomide (NSC362856), topotecan (NSC609699), trabectedin (NSC813783), staurosporine (NSC755774), and gemcitabine (NSC613327) were obtained from the National Cancer Institute (NCI) Developmental Therapeutics Program Chemical Repository. The FDA-approved anticancer drug set is available from the Developmental Therapeutics Program at https://dtp.cancer.gov/organization/dscb/obtaining/available_plates.htm. […] The stock solutions were prepared in dimethyl sulfoxide (DMSO, Sigma-Aldrich, St. Louis, MO, cat. D2650) at 400-fold the tested concentration and stored at -70 degrees C. Prior to their use, the stock solutions were diluted in fresh medium and the final DMSO concentration in the assay was 0.25% (v/v). All drugs and investigational agents were tested over a range starting from a high concentration at or near the clinical Cmax and decreasing in half-log increments. If the clinical Cmax for an agent had not been determined, the highest concentration tested was 10 microM.
Cell Lines. The patient-derived cancer cell (PDC) lines: 156681-154-R-J1-PDC, 283228-195-R-J1-PDC, 287954-098-R-J1-PDC, 292921-168-R-J2-PDC, 349418-098-R-PDC, 425362-245-T-J1-PDC, 556581-035-R-J1-PDC, and BL0293-F563-PDC were received from the NCI Patient-Derived Models Repository (PDMR, https://pdmr.cancer.gov). The established cell lines HS-SY-2 (RRID:CVCL_8719), MPNST, and SYO-1 (RRID:CVCL_7146) were obtained from the Sloan Kettering Institute. The alveolar soft parts sarcoma cell line ASPS-1 (RRID:CVCL_S738) was established at the NCI and grown from internal seed stocks. The following established cell lines were purchased from the American Type Culture Collection (ATCC, Manassas, VA): G-401 (ATCC, cat. CRL-1441, RRID:CVCL_0270), SW982 (ATCC, cat. HTB-93, RRID:CVCL_1734), VA-ES-BJ (ATCC, cat. CRL-2138, RRID:CVCL_1785), NCI-H719 (ATCC, cat. CRL-5837, RRID:CVCL_1582), NCI-H196 (ATCC, cat. CRL-5823, RRID:CVCL_1509), NCI-H841 (ATCC, cat. CRL-5845, RRID:CVCL_1595), NCI-H1618 (ATCC, cat. CRL-5879, RRID:CVCL_1480), NCI-H1876 (ATCC, cat. CRL-5902, RRID:CVCL_1503), DMS 114 (ATCC, cat. CRL-2066; RRID:CVCL_1174), NCI-H211 (ATCC, cat. CRL-5824; RRID:CVCL_1529), and SW 1271 (ATCC, cat. CRL-2177, RRID:CVCL_1716). The small cell lung cancer cell line COR-L88 was purchased from Sigma-Aldrich (cat. 92031917-1VL, RRID:CVCL_1141). The non-small cell lung cancer cell lines NCI-H226 (RRID:CVCL_1544) and NCI-H322M (RRID:CVCL_1557) were established at the NCI and grown from internal seed stocks. Pooled donor human umbilical vein endothelial cells (HUVEC, Lonza, cat. CC-2519) and human mesenchymal stem cells (hMSC, Lonza, cat. PT-2501) were purchased from Lonza (Walkersville, MD).
Cell Culture. All cells were maintained in an incubator at 37 degrees C and 5% CO2 with 95% humidity. […]

[1] = second compound 0.003 µM, first compound 0.0316 µM
[2] = second compound 0.003 µM, first compound 0.1 µM
[3] = second compound 0.003 µM, first compound 0.316 µM
[4] = second compound 0.003 µM, first compound 1 µM
[5] = second compound 0.003 µM, first compound 3.16 µM
[6] = second compound 0.003 µM, first compound 10 µM
[7] = second compound 0.00949 µM, first compound 0.0316 µM
[8] = second compound 0.00949 µM, first compound 0.1 µM
[9] = second compound 0.00949 µM, first compound 0.316 µM
[10] = second compound 0.00949 µM, first compound 1 µM
[11] = second compound 0.00949 µM, first compound 3.16 µM
[12] = second compound 0.00949 µM, first compound 10 µM
[13] = second compound 0.03 µM, first compound 0.0316 µM
[14] = second compound 0.03 µM, first compound 0.1 µM
[15] = second compound 0.03 µM, first compound 0.316 µM
[16] = second compound 0.03 µM, first compound 1 µM
[17] = second compound 0.03 µM, first compound 3.16 µM
[18] = second compound 0.03 µM, first compound 10 µM
[19] = second compound 0.0949 µM, first compound 0.0316 µM
[20] = second compound 0.0949 µM, first compound 0.1 µM
[21] = second compound 0.0949 µM, first compound 0.316 µM
[22] = second compound 0.0949 µM, first compound 1 µM
[23] = second compound 0.0949 µM, first compound 3.16 µM
[24] = second compound 0.0949 µM, first compound 10 µM
[25] = second compound 0.3 µM, first compound 0.0316 µM
[26] = second compound 0.3 µM, first compound 0.1 µM
[27] = second compound 0.3 µM, first compound 0.316 µM
[28] = second compound 0.3 µM, first compound 1 µM
[29] = second compound 0.3 µM, first compound 3.16 µM
[30] = second compound 0.3 µM, first compound 10 µM

Q: How did the IC50 (second compound 0.003 µM) turn out when Cc1cc(C)c(CNC(=O)c2cc(-c3ccc(CN4CCOCC4)cc3)cc3c2cnn3C2CCCC2)c(=O)[nH]1 + CC[C@@]1(O)C(=O)OCc2c1cc1n(c2=O)Cc2cc3c(CN(C)C)c(O)ccc3nc2-1 was run?
A: Its IC50 is 8330 nM.

Q: And the IC50 (second compound 0.00949 µM)?
A: The IC50 was greater than 10000 nM.

Q: What about the IC50 (second compound 0.03 µM) of the same compound?
A: Its IC50 is 252 nM.

Q: And the IC50 (second compound 0.0949 µM)?
A: Its IC50 is 44.1 nM.

Q: And the IC50 (second compound 0.3 µM)?
A: Its IC50 is less than 31.6 nM.

Q: What about the viability, T/C [1] of the same compound?
A: The viability, T/C was 87%.

Q: What about the viability, T/C [2] of the same compound?
A: The viability, T/C was 91.7%.

Q: What about the viability, T/C [3] of the same compound?
A: The viability, T/C was 90.4%.

Q: What about the viability, T/C [4] of the same compound?
A: Its viability, T/C is 80.8%.

Q: And the viability, T/C [5]?
A: The viability, T/C was 73.1%.

Q: What about the viability, T/C [6] of the same compound?
A: Its viability, T/C is 45.5%.

Q: What about the viability, T/C [7] of the same compound?
A: Its viability, T/C is 76.9%.

Q: And the viability, T/C [8]?
A: The viability, T/C was 81.5%.

Q: And the viability, T/C [9]?
A: Its viability, T/C is 83.8%.

Q: And the viability, T/C [10]?
A: Its viability, T/C is 73%.

Q: What about the viability, T/C [11] of the same compound?
A: Its viability, T/C is 60.3%.

Q: What about the viability, T/C [12] of the same compound?
A: Its viability, T/C is 54.4%.

Q: What about the viability, T/C [13] of the same compound?
A: Its viability, T/C is 52.4%.

Q: And the viability, T/C [14]?
A: Its viability, T/C is 56.2%.

Q: What about the viability, T/C [15] of the same compound?
A: Its viability, T/C is 47.1%.

Q: And the viability, T/C [16]?
A: Its viability, T/C is 46.3%.

Q: What about the viability, T/C [17] of the same compound?
A: The viability, T/C was 43%.

Q: And the viability, T/C [18]?
A: Its viability, T/C is 39.2%.

Q: And the viability, T/C [19]?
A: Its viability, T/C is 51.7%.

Q: And the viability, T/C [20]?
A: The viability, T/C was 48.2%.

Q: What about the viability, T/C [21] of the same compound?
A: Its viability, T/C is 45.1%.

Q: What about the viability, T/C [22] of the same compound?
A: The viability, T/C was 45.9%.

Q: What about the viability, T/C [23] of the same compound?
A: Its viability, T/C is 40.5%.

Q: And the viability, T/C [24]?
A: The viability, T/C was 41.7%.

Q: What about the viability, T/C [25] of the same compound?
A: Its viability, T/C is 40.5%.

Q: What about the viability, T/C [26] of the same compound?
A: Its viability, T/C is 38.4%.

Q: And the viability, T/C [27]?
A: The viability, T/C was 39%.

Q: What about the viability, T/C [28] of the same compound?
A: Its viability, T/C is 38.1%.

Q: And the viability, T/C [29]?
A: The viability, T/C was 35.8%.

Q: What about the viability, T/C [30] of the same compound?
A: The viability, T/C was 30.4%.

Q: [2H]c1nc(C)nc([2H])c1-c1cc(NC[C@@H](C)c2cccc3c(C(=O)NC)ccnc23)ncn1 + CC[C@@]1(O)C(=O)OCc2c1cc1n(c2=O)Cc2cc3c(CN(C)C)c(O)ccc3nc2-1 was tested. Which IC50 (second compound 0.003 µM) did it give?
A: Its IC50 is greater than 10000 nM.

Q: What about the IC50 (second compound 0.00949 µM) of the same compound?
A: The IC50 was greater than 10000 nM.

Q: And the IC50 (second compound 0.03 µM)?
A: The IC50 was 2000 nM.

Q: What about the IC50 (second compound 0.0949 µM) of the same compound?
A: Its IC50 is 1550 nM.

Q: And the IC50 (second compound 0.3 µM)?
A: The IC50 was 8580 nM.

Q: And the viability, T/C [1]?
A: Its viability, T/C is 99.2%.

Q: What about the viability, T/C [2] of the same compound?
A: The viability, T/C was 98.1%.

Q: What about the viability, T/C [3] of the same compound?
A: Its viability, T/C is 103%.

Q: And the viability, T/C [4]?
A: Its viability, T/C is 99%.

Q: What about the viability, T/C [5] of the same compound?
A: Its viability, T/C is 101%.

Q: What about the viability, T/C [6] of the same compound?
A: The viability, T/C was 100%.

Q: And the viability, T/C [7]?
A: The viability, T/C was 68.6%.

Q: What about the viability, T/C [8] of the same compound?
A: The viability, T/C was 72.5%.

Q: What about the viability, T/C [9] of the same compound?
A: The viability, T/C was 83.1%.

Q: And the viability, T/C [10]?
A: Its viability, T/C is 87.7%.

Q: What about the viability, T/C [11] of the same compound?
A: The viability, T/C was 85%.

Q: And the viability, T/C [12]?
A: Its viability, T/C is 85.1%.

Q: And the viability, T/C [13]?
A: Its viability, T/C is 56.6%.

Q: And the viability, T/C [14]?
A: Its viability, T/C is 58.3%.

Q: And the viability, T/C [15]?
A: Its viability, T/C is 52.1%.

Q: And the viability, T/C [16]?
A: The viability, T/C was 55.2%.

Q: And the viability, T/C [17]?
A: The viability, T/C was 47.3%.

Q: And the viability, T/C [18]?
A: Its viability, T/C is 38.9%.

Q: And the viability, T/C [19]?
A: Its viability, T/C is 58.3%.

Q: What about the viability, T/C [20] of the same compound?
A: Its viability, T/C is 59.8%.

Q: And the viability, T/C [21]?
A: Its viability, T/C is 54.7%.

Q: And the viability, T/C [22]?
A: Its viability, T/C is 62.5%.

Q: What about the viability, T/C [23] of the same compound?
A: Its viability, T/C is 34.4%.

Q: What about the viability, T/C [24] of the same compound?
A: Its viability, T/C is 37%.

Q: What about the viability, T/C [25] of the same compound?
A: Its viability, T/C is 55.9%.

Q: And the viability, T/C [26]?
A: The viability, T/C was 55.4%.

Q: What about the viability, T/C [27] of the same compound?
A: Its viability, T/C is 57.1%.

Q: And the viability, T/C [28]?
A: Its viability, T/C is 57.3%.

Q: And the viability, T/C [29]?
A: Its viability, T/C is 57.1%.

Q: And the viability, T/C [30]?
A: Its viability, T/C is 42.4%.
